Results on three molecules are retold here after patent publication US4921861A, “Pharmaceutical compositions” (BASF Aktiengesellschaft, priority 1987, dated 1990).

Data set [1] relates to rats. The data set can be described thus: conflict test: anxiolytic (punished) and sedative (unpunished) effect on water consumption. The note with it: for water uptake, without electric current / water uptake, with electric current: 0.5 hour; for minimal effective dose: Rattus norvegicus, sc, s.c. It counts as in vivo, Male CFY rats. As to the method:
(§1) The pharmacological activity of 3-amino-4-ethylthio-quinoline is substantiated by the following tests. As test compound 3-amino-4-ethylthio-quinoline-hydrochloride (referred to further as "Compound A") is used.
Anxiolytic and sedative effects are studied according to the following conflict test. […] On the other hand, sedative effect can be observed but in a dose of 25 mg/kg. Thus the ratio of the anxiolytic and sedative doses amounts to 25,000: 2.5=10,000. The same value of chlordiazepoxide is 10:0.1=100. It appears that in the case of Compound A the dissociation between the sedative and anxiolytic doses is extremely high.
The essential strategy for measuring the anti-anxiety effect of a drug is to check its activity in a conflict situation. We elicit a rewarded response, then suppress that response by punishing it when it occurs and the anti-anxiety effect is measured by the drug-induced increase in punished responding, whereas the sedative effect is measured by the drug-induced decrease of unpunished responding.
A rat, deprived of food for 96 hours and supplied with water ad libitum, drinks about 7 ml water during the 4th day of food deprivation, but needs 35 ml water daily when supplied with dry food [for review see Knoll, J. J., Neural Transm. 59, 163-194 (1984)]. This means that when we circuit the drinking tube and the grid floor of the cage and the rat is regularly shocked by trying to drink, the very hungry animal, which cannot eat without drinking, is maximally forced to overcome the hindrance. This is a sensitive test to check the anti-anxiety effect of a compound.
Male CFY rats, weighing 230-250 g, fed with standard food pellets and supplied with tap water ad libitum, were kept under controlled standard environmental conditions (room temperature between 22°-24° C.) in groups of ten for two weeks until used in the experiment. The rats kept in single cages during starvation were deprived of food for 96 hours and supplied with tap water ad libitum before the experiment.
Another aspect of the selection of the animals for the experiment was their visible physical fitness and normal activity after starvation. Less than 10 percent of the rats were excluded from the experiment because of insufficient physical fitness.
A clear Plexiglass box (39×27×12 cm) with a stainless-steel grid floor supplied with a tray for the food pellets and with a drinking tube was used for the experiment. The grid floor, the drinking tube and an electric stimulator (Grass S48) were connected and electric shocks in this circuit were delivered for 10 s duration with 20 s intervals. The parameters of the current (100V; 25 ohm; 7.5 ms; 5 Hz) were empirically selected using those electric shocks which inhibited the water consumption of the very hungry rats to one third of the control (unpunished) level.
The rats spend one hour in the apparatus after 96 hours of food deprivation. The very hungry rats eat 5-6 g of food pellets during the first hour of the feeding period after the long starvation. […] In the punished situation the consumption was reduced to less than 3 ml.
The drugs were administered parenterally in doses of 0.5 ml/100 g body weight. We refrained from the oral administration of the compounds because of the long term food deprivation.

Data set [2] deals with spasms induced by tetracor. The data set can be described thus: spasmolytic effect on spasms induced by tetracor. It counts as in vivo.
Description: as §1

The test system of another data set is inactine narcosis time. The data set can be described thus: narcosis potentiating effect, inactine narcosis. It counts as in vivo, rats.
Description: as §1
(§2) The narcosis potentiating effect of Compound A (on rats) is very strong if inactine is used.

The next data set has as its system benzodiazepine receptors. The data set can be described thus: displacement of diazepame from benzodiazepine receptors. It counts as binding.
Data set [3] relates to unconditioned avoidance reflex. Put plainly: modified jumping test. To be noted: 50 and 100 mg p.o. It counts as in vivo.
Description: as §1

For data set [4], the system named is two-way conditioned avoidance reflex. The data set can be described thus: shuttle box (two-way conditioned avoidance reflex). It counts as in vivo. To be noted: rats, 100 mg/kg p.o.
Description: as §1

The subject of a further data set is calypsol narcosis time. Put plainly: narcosis time of non-barbiturate phenyclidine derivative (calypsol). It counts as in vivo, rats.
Data set [5] relates to hexobarbital narcosis time. The data set can be described thus: narcosis potentiating effect, hexobarbital narcosis. To be noted: compared with inactine. It counts as in vivo, rats.
Description: as §1, §2

The next data set is described as follows: "hot-plate" test. It counts as in vivo.
Description: as §1

The next data set deals with metabolism. The data set can be described thus: influence on metabolism. It counts as in vivo. The note with it: rats, 100 mg/kg p.o.
Description: as §1

Data set [6] relates to one-way conditioned avoidance. The data set can be described thus: one-way conditioned avoidance test (screening test I). It counts as in vivo. To be noted: 100 mg/kg p.o.
Description: as §1

Data set [7] relates to rats. The data set can be described thus: algolytic test. It counts as in vivo.
Description: as §1
Compound A is ineffective in the algolytic test (on rats).

Another data set deals with spontaneous motility. The data set can be described thus: spontaneous motility. It counts as in vivo. The note with it: rats.
Description: as §1

The nature of a further data set: acute toxicity (LD50). The note with it: rat, in vivo, rats.
Description: as §1

SMILES strings stand for the structures. Entries after “also recorded” stand apart in the source; their conditions may differ. Read-outs that look alike come from different tables or passages of the source.

As to `CCSc1c(N)cnc2ccccc12` [3-amino-4-ethylthio-quinoline], in the data set on rats [1] (general statement), the anxiolytic effect result was “particularly potent anxiolytic; also recorded: highly selective anxiolytic effect” and the sedative effect result is given as “devoid of sedative”. The anticonvulsive effect entry in data set [2] (general statement) was “devoid of sedative and anticonvulsive effects”. Further, the narcosis potentiating effect result with inactine narcosis time (general statement) was “particularly potent anxiolytic and narcosis potentiating effect”.

Regarding `CCSc1c(N)cnc2ccccc12.Cl` [Compound A, 3-amino-4-ethylthio-quinoline-hydrochloride], the “water uptake, without electric current” value in the data set on rats [1] (0.25 mg/kg s.c., 10 animals) was 6.1 ± 0.46 mL; in the data set with rats [1] (5 mg/kg s.c., 10 animals) it was 7.2 ± 0.37 mL; with rats [1] (10 mg/kg s.c., 10 animals), 6.9 ± 0.43 mL; in the data set on rats [1] (25 mg/kg s.c., 7 animals, p < 0.01) it was 3.4 ± 0.60 mL. Also, the “water uptake, with electric current” value in the data set on rats [1] (0.25 mg/kg s.c., 10 animals, p < 0.05) is 3.3 ± 0.45 mL; in the data set with rats [1] (2.5 γ/kg s.c., 10 animals, p < 0.05), 3.4 ± 0.43 mL; in the data set on rats [1] (5 γ/kg s.c., 10 animals, p < 0.001) it was 4.1 ± 0.66 mL; in the data set on rats [1] (10 γ/kg s.c., 10 animals), 2.7 ± 0.33 mL; in the data set on rats [1] (25 γ/kg s.c., 10 animals) it was 2.8 ± 0.38 mL. Moreover, the minimal effective dose with rats [1] (with electric current, read-out: dose significantly increasing water consumption punished by trains of electric shock (anxiolytic dose)) was 0.0025 mg/kg; in the data set on rats [1] (without electric current, read-out: dose at which sedative effect can be observed), 25 mg/kg. For the same molecule, the anxiolytic effect result in the data set with rats [1] (general statement) is listed as “extremely active anxiolytic agent”. Moreover, in the data set with rats [1], the “ratio of the anxiolytic and sedative doses” value is recorded as 10,000. For the same molecule, the “displacement of diazepame from the benzodiazepine receptors” value with benzodiazepine receptors is recorded as “displaces diazepame from the benzodiazepine receptors”. Also, the “inhibition of the unconditioned avoidance reflex” value in [3] is recorded as “does not inhibit”. Also, the “inhibition of learning ability” value in data set [4] is listed as “inhibits learning ability on rats significantly”. Further, the “effect on narcosis time of calypsol” value in the data set on calypsol narcosis time is reported as “does not lengthen the narcosis time”. For the same molecule, in data set [5], the “prolongation of hexobarbital narcosis time” value is recorded as “to a much weaker extent”. Moreover, in data set [2] (25 and 100 mg/kg p.o.), the “spasmolytic effect on spasms induced by tetracor” value is listed as “no spasmolytic effect”. Further, the ED50 in “"hot-plate" test” (oral) worked out at 49 mg/kg; in the data set “"hot-plate" test” (sc) it was 40 mg/kg. Also, the influence on metabolism result in the data set with metabolism is on record as “does not influence metabolism”. The “inhibiting effect in one-way conditioned avoidance test” value in data set [6] is listed as “very weak inhibiting effect”. In addition, the “activity in the algolytic test” value in the data set with rats [7] is “ineffective”. The “inhibition of spontaneous motility” value with spontaneous motility (25 mg/kg) was “inactive”; in the data set on spontaneous motility (50 and 100 mg/kg p.o.), “moderately in a dose-independant manner”. Besides, the “ED500 (dose which causes a five-fold prolongation of the inactine narcosis time)” value in the data set on inactine narcosis time (p.o., rats) was 3.4 mg/kg; with inactine narcosis time (s.c., rats), 3.5 mg/kg. In the data set with inactine narcosis time (rats, inactine), the narcosis potentiating effect entry is “very strong”. Moreover, the LD50 in the data set “acute toxicity (LD50)” (sc) came to 320 mg/kg; in “acute toxicity (LD50)” (oral) it was 420 mg/kg.

Consider `CNC1=Nc2ccc(Cl)cc2C(c2ccccc2)=[N+]([O-])C1` [chlordiazepoxide, reference compound], for which, in the data set with rats [1], the “ratio of the anxiolytic and sedative doses” value worked out at 100.

In general, ED50 refers to the dose that gives a 50% effect, or the effect in half of the subjects. For orientation: LD50 means the dose expected to kill half of the subjects tested. Low readings indicate a more toxic substance, high ones a less toxic substance.
